Test results reported in article PMC6337391 (Molecules, 2019).

Assays:
[1] = Reducing activity with the stable radical DPPH
In short: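 DPPH (final 0.05 mM) in absolute ethanol mixed with an equal volume of compound at 0.05 or 0.1 mM, ethanol as control. Absorbance at 517 nm read at room temperature after 20 and 60 min, expressed as reducing activity RA%.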

[2] = Inhibition of linoleic acid lipid peroxidation (AAPH)
In short: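 Sodium linoleate oxidation was initiated by AAPH in 0.05 M phosphate buffer, pH 7.4, at 37 °C, with test compound present and DMSO as blank. Conjugated diene hydroperoxide formation was followed as the absorbance increase at 234 nm.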

Aβ40 = target: T1, Aβ40 (Homo sapiens, UniProt P05067); experiment: Circular dichroism study of Aβ40 aggregation; details: 50 µM compound, 50 µM Aβ40 (1:1), PB pH 7.33, 33 °C, 40 days
T1 construct: Amyloid peptide Aβ40 was purchased from AnaSpec Co; purchased AnaSpec Co. (Fremont, CA, USA)
Text: The pathogenesis of Alzheimer’s disease (AD) is widely associated with the aggregation of β-amyloid peptide (Aβ) either to soluble oligomers or to higher-order polymeric insoluble fibrils. As a result, one of the main therapeutic strategies against AD targets the aggregation process of Aβ, and a great number of small molecules are being investigated for their potential to intervene in the assembly of Aβ and inhibit its neurotoxicity in vitro and in vivo [64]. Circular dichroism (CD) spectroscopy is commonly used to probe the secondary structure of polypeptides and to monitor conformational changes and interactions of polypeptides with small molecules. The typical aggregation process of Aβ produces characteristic CD spectra over time that reflect the conformational changes that occur as the random coil monomers are converted into β-sheet oligomers, and then gradually to larger β-sheet formations that finally produce amyloid fibrils. CD is, therefore, a valuable tool to monitor the aggregation process of Aβ and to study the effect of potential aggregation inhibitors. To further investigate the pleiotropic effects of chalcones against AD, selected compounds from our library, were subjected to CD studies in order to evaluate their potential to interfere with the aggregation process of Aβ40. […] The aggregation spectra of plain Aβ40 show at day 0 the typical random coil peak (negative maximum at 198 nm) the intensity of which gradually decreases as the peptide forms β–sheet structures (negative maximum at 222 nm, day 15) that further aggregate to higher order polymeric fibrils. The precipitation of the insoluble fibrils from solution eventually results in the loss of CD signal (days 30 and 40). […] In view of the above results, chalcone derivatives bearing a three-carbon chain linker, specifically c2, c3, and c4, were subsequently studied in order to assess the effect of further derivatization and the presence of the chalcone moiety in the structure. […] Overall, our CD study identified three new structures capable of interfering with the aggregation process of Aβ, out of which compounds c2 and c4 display additional protective actions against AD and add to the pleiotropic profile of the chalcone derivatives.
Preparation of Aβ stocks and solutions. Amyloid peptide Aβ40 was purchased from AnaSpec Co. (Fremont, CA, USA) (>95% pure). Aβ40 was gently dissolved without vortexing in Type 1 (Milli-Q) water to a final concentration of 100 μM. Solutions of Aβ in phosphate buffer (PB, 10 mM, pH 7.33) were prepared by adding equal volumes of PB to aliquots of the aqueous solution stock to achieve final concentration of 50 µM. The proper amount of the compounds c2, c3, c4, di, dii, and dvi were added to the Aβ solutions to achieve concentration of 50 μM. The secondary structural changes of Aβ were monitored for 40 days by CD. During this period, the amyloid peptide solutions were kept at an incubator at 33 °C under quiescent conditions.
Circular dichroism measurements. CD spectra were recorded on a JASCO J-715 spectropolarimeter (Jasco Co., Tokyo, Japan), at 33 °C in the range of 190–260 nm with a 1 mm path length quartz cuvette. Each spectrum was the average of three scans at a speed of 100 nm·min^−1 and a resolution of 0.5 nm. Three independent experiments were run for each condition and in each case solutions of plain Aβ were run as control (Figure 8). The analysis of the CD data was performed using the OriginPro 9 program.

T1 sequence (P05067 672-711 limits assumed): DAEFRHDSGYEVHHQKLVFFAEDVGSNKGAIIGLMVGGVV

In the case of O=C(/C=C/c1cccc2ccccc12)c1ccccc1O [b4, (E)-1-(2-hydroxyphenyl)-3-(naphthalen-1-yl) prop-2-en-1-one], the “RA% 100 μM 20 min” value [1] is reported as 30%, the “RA% 100 μM 60 min” value [1] is reported as 20% and the “AAPH% @ 100 μM (anti-lipid peroxidation)” value [2] is reported as 82%.
In the case of O=C(/C=C/C=C/c1ccc([N+](=O)[O-])cc1)c1ccc(OCCCOc2ccc(C(=O)/C=C/C=C/c3ccc([N+](=O)[O-])cc3)cc2)cc1 [c11, (2E,2′E,4E,4′E)-1,1′-((propane-1,3-diylbis(oxy))bis(4,1-phenylene))bis(5-(4-nitrophenyl)penta-2,4-dien-1-one)], the “RA% 100 μM 20 min” value [1] is reported as “No”, the “RA% 100 μM 60 min” value [1] is reported as “no” and the “AAPH% @ 100 μM (anti-lipid peroxidation)” value [2] is reported as 68%.
In the case of CC(=O)c1ccc(OCCOc2ccc(C(C)=O)cc2)cc1 [di, 1,1′-((ethane-1,2-diylbis(oxy))bis(4,1-phenylene))diethanone], the “AAPH% @ 100 μM (anti-lipid peroxidation)” value [2] is reported as 22% and the “effect on the aggregation process of Aβ40 (CD spectra)” value (Aβ40) is reported as “did not significantly change the fibrillization course of Aβ40”.
With CC(=O)c1ccc(OCCCCCCCOc2ccc(C(C)=O)cc2)cc1 [dvi, 1,1′-((heptane-1,7-diylbis(oxy))bis-(4,1-phenylene)) diethanone] the “AAPH% @ 100 μM (anti-lipid peroxidation)” value [2] was 12% and the “effect on the aggregation process of Aβ40 (CD spectra)” value (Aβ40) was “did not significantly change the fibrillization course of Aβ40”.
